US9579328B2, “Prostaglandin and vasoconstrictor pharmaceutical compositions and methods of use” (ALLERGAN, INC., priority 2012, dated 2017)

Assays:
[1] = tested on: rabbit isolated jugular veins; test: Vasorelaxation in histamine-precontracted rabbit isolated jugular veins; format: cell-based
Source text: FIG. 3. Concentration-response curves for (FIG. 3A) bimatoprost and (FIG. 3B) latanoprost free acid in histamine-precontracted endothelium-intact and endothelium-denuded rabbit isolated jugular veins. Results are expressed as mean±S.E.M. of 5-6 animals. FIG. 3A adapted from Chen J et al., Invest Ophthalmol Vis Sci 2004; 45:ARVO E-Abstract 2609; FIG. 3B extends results reported in Chen J et al., Invest Ophthalmol Vis Sci 2004; 45:ARVO E-Abstract 2609; and Pharmacology Review of New Drug Application 21-275. FDA/Center for Drug Evaluation and Research. 2001;Part 1 and Part 2:1-107. Available online at http://www.fda.gov/cder/foi/nda/2001/21275_Lumigan.htm.
FIG. 4. Concentration-response curves for (FIG. 4A) bimatoprost and (FIG. 4B) latanoprost free acid in the presence or absence of indomethacin in endothelium-intact rabbit isolated jugular veins. Results are expressed as mean±S.E.M. of 7 animals and extend previous results reported in Pharmacology Review of New Drug Application 21-275. FDA/Center for Drug Evaluation and Research. 2001;Part 1 and Part 2:1-107. Available online at http://www.fda.gov/cder/foi/nda/2001/21275_Lumigan.htm.
FIG. 5. Concentration-response curves for (FIG. 5A) bimatoprost and (FIG. 5B) latanoprost free acid in the presence of 100 μM L-NAME or 100 (μM D-NAME control in endothelium-intact rabbit isolated jugular veins. Results are expressed as mean±S.E.M. of 6 animals. *P≦0.05, compared to responses in D-NAME pretreated tissues at the same concentration, paired t-test.
The pharmacological mechanism of ocular surface hyperemia elicited by bimatoprost and latanoprost was investigated using the rabbit jugular vein preparation as a quantitative in vitro model (Chen J. et al., Br J Pharmacol 1995; 116:3035-3041). In these studies, tissues were suspended in jacketed organ baths containing Krebs buffer with 1 μM indomethacin (endothelium-intact and -denuded) or in its absence (endothelium-intact) and precontracted with 3 μM histamine. Vasorelaxant and contractile activity were determined as a percentage (%) of the control tone elicited by histamine. Statistical comparisons for the vasorelaxant activity consisted of testing for significance of difference at each of the concentrations tested using the Student'-s t-test for unpaired samples (indomethacin vs no indomethacin) and paired samples (L-NAME vs D-NAME). Differences were considered statistically significant for P-values ≦0.05.
Indomethacin is a cyclooxygenase inhibitor that is routinely used in prostanoid receptor assays (Chen J et al., Current protocols in pharmacology. New York: John Wiley & Sons, Inc., 2001; 4.18.1-4.18.41). Studies of intact and viable isolated tissues, such as the rabbit jejunum (Ferreira S H, Herman A G, Vane J R., Br J Pharmacol 1976; 56:469-477) and human bronchial muscle (Haye-Legrand I, Cerrina J, Raffestin B et al., J Pharmacol Exp Ther 1986; 239:536-541), found the basal output of prostaglandins to be 8-23 pg/mg of tissue at baseline or over 30 min collection periods. In the presence of 1.7 and 2.79 μM indomethacin, the amounts of prostaglandins generated in isolated tissues become negligible (Botting J H, Salzmann R., Br J Pharmacol 1974; 50:119-124; Haye-Legrand I, Cerrina J, Raffestin B et al., J Pharmacol Exp Ther 1986; 239:536-541). The 1 μM concentration of indomethacin in the tissue bath, in our experience, is sufficient to prevent biosynthesis of prostanoids within isolated vascular tissue preparations (Alster P, Wennmalm Å., Eur J Pharmacol 1983; 86:441-446; Chen J et al., Current protocols in pharmacology. New York: John Wiley & Sons, Inc., 2001; 4.18.1-4.18.41). At substantially higher concentrations, indomethacin has been reported to lose selectivity for prostanoid biosynthesis inhibition (Aboulafia J et al., Br J Pharmacol 1976; 58:223-228; Goodfriend T L, Simpson R U., Br J Pharmacol 1981; 72:247-255; Northover B J, Br J Pharmacol 1971; 41:540-551; Sawdy R et al., Br J Pharmacol 1998; 125:1212-1217). […]

[2] = tested on: bulbar conjunctiva of patients; conditions: bimatoprost 0.03% q.d. for 60 days; biopsies at day 7 and impression cytology; cited from earlier work
[3] = tested on: rabbit isolated jugular veins; conditions: cited from earlier work

CCNC(=O)CCC/C=C\C[C@@H]1[C@@H](/C=C/[C@@H](O)CCc2ccccc2)[C@H](O)C[C@@H]1O [Bimatoprost, bimatoprost]
vasorelaxant response in presence of 100 μM L-NAME compared to 100 μM D-NAME control ([1]; endothelium-intact histamine precontracted tissues, P≦0.05 paired t-test): significantly inhibited
difference in effects with and without 1 μM indomethacin ([1]; endothelium-intact tissues, each concentration tested): no statistically significant differences
evidence of inflammation [2]: no evidence of inflammation
response in the endothelium-denuded preparation ([3]; endothelium-denuded, histamine precontracted, bimatoprost): inactive
EC50 ([3]; endothelium-intact jugular veins, 3 μM histamine precontracted, read-out: vasorelaxant response EC50): 3.98 µM
